In brackets after ≈: the same amount, converted by molar mass.
Columns and labels:
MtDHFR = MtDHFR (Mycobacterium tuberculosis, UniProt P9WNX1); assay: biochemical; type: biochemical
E. coli ATCC 25922 = assay: Antibacterial activity, broth microdilution (E. coli); conditions: Escherichia coli, ATCC25922, read-out: E. coli ATCC 25922 (Gram –ve) MIC, broth microdilution
Description: (§1) All twenty-eight molecules were evaluated for in vitro antimicrobial activities that were assessed against Gram +ve and Gram -ve strains.
(§2) The antibacterial inhibitory effects of all compounds were assessed using the broth microdilution method, with ciprofloxacin serving as the reference medication.

[1] = tested on: human lung cancer cell line A549; assay: MTT-based cytotoxicity; type: cell-based; conditions: Homo sapiens, A549; MTT assay
Description: The cytotoxic effects of seventeen selected molecules were assessed against the A549 human lung adenocarcinoma cell line using the MTT assay. Cisplatin served as the reference drug for comparison. Lower IC50 values indicate higher cytotoxicity.
The cytotoxic activity (IC50) of selected compounds against A549 (lung adenocarcinoma) MV cell-lines was evaluated by performing cellular conversion of MTT [3-(4,5-dimethylthiazo-2-yl)-2,5-diphenyl-tetrazolium bromide] into a formazan product. This evaluation was conducted up to a concentration of 50 mg/mL using the Promega Cell Titre 96 non-radioactive cell proliferation assay, with cisplatin serving as the positive control. Cytotoxicity is commonly quantified by determining the IC50 value, which represents the quantity of a substance that reduces the optical density of treated cells by 50% compared to untreated cells, as measured by the MTT experiment. The results are presented as IC50 values (mean ± standard error of the mean (SEM) obtained from three separate and independent measurements.

S. aureus ATCC 29213 = assay: Antibacterial activity, broth microdilution (S. aureus); conditions: Staphylococcus aureus, ATCC29213, read-out: S. aureus ATCC 29213 (Gram +ve) MIC
Description: as §1, §2

[2] = molecular target: InhA enzyme from M. tuberculosis (Mycobacterium tuberculosis, UniProt P9WGR1); assay: InhA inhibition assay; type: biochemical; conditions: read-out: % InhA Inhibition at 50 µM
M. tuberculosis H37Rv = assay: Antitubercular activity, Microplate Alamar Blue test (MABA); type: cell-based, Mycobacterium tuberculosis; conditions: Mycobacterium tuberculosis, H37RV, n = 3

Sequence of MtDHFR (P9WNX1 whole entry): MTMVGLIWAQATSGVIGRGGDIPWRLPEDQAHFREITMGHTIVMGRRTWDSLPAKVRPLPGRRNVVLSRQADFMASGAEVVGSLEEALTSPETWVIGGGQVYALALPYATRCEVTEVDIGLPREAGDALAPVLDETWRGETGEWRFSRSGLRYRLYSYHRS
Sequence of InhA enzyme from M. tuberculosis (P9WGR1 whole entry, looked up): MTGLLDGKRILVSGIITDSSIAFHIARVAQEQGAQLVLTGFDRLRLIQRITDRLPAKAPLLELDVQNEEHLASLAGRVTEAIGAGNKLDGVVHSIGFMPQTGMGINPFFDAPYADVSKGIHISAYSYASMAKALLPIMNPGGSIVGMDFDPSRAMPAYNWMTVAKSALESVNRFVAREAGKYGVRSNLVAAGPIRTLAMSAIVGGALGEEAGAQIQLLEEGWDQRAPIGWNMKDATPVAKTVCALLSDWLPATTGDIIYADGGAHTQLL

Compound | IC50 (MtDHFR) [µM] | MtDHFR inhibition, in words, compared with trimethoprim (MtDHFR) | MIC (E. coli ATCC 25922) [µg/mL] | IC50 [1] [µg/mL] | MIC (S. aureus ATCC 29213) [µg/mL] | inhibition at 50 µM [2] [%] | MIC (M. tuberculosis H37Rv) [µg/mL]
CC(=NNC(=O)COC(=O)c1ccc(-n2cccc2)cc1)c1ccc(F)cc1 [Compound 5l, 2-(2-(1-(4-fluorophenyl)ethylidene)hydrazinyl)-2-oxoethyl 4-(1H-pyrrol-1-yl)benzoate] | 65 | moderate inhibition | 3.12 (≈ 8.22 µM) | 241 ± 0.6 (≈ 635 µM) | 12.5 (≈ 32.9 µM) | 46 | 1.6 (≈ 4.22 µM)
O=C(COC(=O)c1ccc(-n2cccc2)cc1)NN=Cc1ccccc1 [Compound 6a, 2-(2-benzylidenehydrazinyl)-2-oxoethyl 4-(1H-pyrrol-1-yl)benzoate] | 132 | – | 1.6 (≈ 4.61 µM) | 244 ± 0.8 (≈ 702 µM) | 12.5 (≈ 36 µM) | 13 | 1.6 (≈ 4.61 µM)
CC(=NNC(=O)COC(=O)c1ccc(-n2cccc2)cc1)c1cccc([N+](=O)[O-])c1 [Compound 5g, 2-(2-(1-(3-nitrophenyl)ethylidene)hydrazinyl)-2-oxoethyl 4-(1H-pyrrol-1-yl)benzoate] | 132 | – | 1.6 (≈ 3.94 µM) | 249 ± 0.9 (≈ 613 µM) | 6.25 (≈ 15.4 µM) | 34 | 1.6 (≈ 3.94 µM)
O=C(COC(=O)c1ccc(-n2cccc2)cc1)NN=Cc1ccc([N+](=O)[O-])cc1 [Compound 6c, 2-(2-(4-nitrobenzylidene)hydrazinyl)-2-oxoethyl 4-(1H-pyrrol-1-yl)benzoate] | 133 | – | 1.6 (≈ 4.08 µM) | 296 ± 0.3 (≈ 754 µM) | 6.25 (≈ 15.9 µM) | 9 | 1.6 (≈ 4.08 µM)
CC(=NNC(=O)COC(=O)c1ccc(-n2cccc2)cc1)c1cccc(Br)c1 [Compound 5f, 2-(2-(1-(3-bromophenyl)ethylidene)hydrazinyl)-2-oxoethyl 4-(1H-pyrrol-1-yl)benzoate] | 153 | – | 1.6 (≈ 3.63 µM) | 275 ± 0.4 (≈ 625 µM) | 3.12 (≈ 7.09 µM) | 43 | 1.6 (≈ 3.63 µM)
CC(=NNC(=O)COC(=O)c1ccc(-n2cccc2)cc1)c1cccc(Cl)c1 [Compound 5k, 2-(2-(1-(3-chlorophenyl)ethylidene)hydrazinyl)-2-oxoethyl 4-(1H-pyrrol-1-yl)benzoate] | 69 | moderate inhibition | 3.12 (≈ 7.88 µM) | 229 ± 0.4 (≈ 579 µM) | 12.5 (≈ 31.6 µM) | 32 | 1.6 (≈ 4.04 µM)
O=C(OCC(=O)n1[nH]c(=O)c2ccccc2c1=O)c1ccc(-n2cccc2)cc1 [Compound 4a, 2-(1,4-dioxo-3,4-dihydrophthalazin-2(1H)-yl)-2-oxoethyl 4-(1H-pyrrol-1-yl)benzoate] | 23 | greater inhibition characteristics than trimethoprim | 3.12 (≈ 8.01 µM) | 315 ± 0.3 (≈ 809 µM) | 12.5 (≈ 32.1 µM) | 43 | 1.6 (≈ 4.11 µM)
CC(=NNC(=O)COC(=O)c1ccc(-n2cccc2)cc1)c1ccccc1 [Compound 5a, 2-oxo-2-(2-(1-phenylethylidene)hydrazinyl)ethyl 4-(1H-pyrrol-1-yl)benzoate] | 95 | – | 1.6 (≈ 4.43 µM) | 225 ± 0.3 (≈ 623 µM) | 12.5 (≈ 34.6 µM) | 26 | 1.6 (≈ 4.43 µM)
O=C(OCC(=O)n1[nH]c(=O)c2c(Cl)c(Cl)c(Cl)c(Cl)c2c1=O)c1ccc(-n2cccc2)cc1 [Compound 4b, 2-oxo-2-(5,6,7,8-tetrachloro-1,4-dioxo-3,4-dihydrophthalazin-2(1H)-yl)ethyl 4-(1H-pyrrol-1-yl)benzoate] | 25 | greater inhibition characteristics than trimethoprim | 0.8 (≈ 1.52 µM) | 319 ± 0.4 (≈ 605 µM) | 6.25 (≈ 11.9 µM) | 29 | 1.6 (≈ 3.04 µM)
O=C(OCC(=O)n1[nH]c(=O)c2c(Br)c(Br)c(Br)c(Br)c2c1=O)c1ccc(-n2cccc2)cc1 [Compound 4c, 2-oxo-2-(5,6,7,8-tetrabromo-1,4-dioxo-3,4-dihydrophthalazin-2(1H)-yl)ethyl 4-(1H-pyrrol-1-yl)benzoate] | 21 | greater inhibition characteristics than trimethoprim | 0.8 (≈ 1.13 µM) | 287 ± 0.7 (≈ 407 µM) | 6.25 (≈ 8.87 µM) | 51 | 1.6 (≈ 2.27 µM)
Cc1cc(=O)n(C(=O)COC(=O)c2ccc(-n3cccc3)cc2)[nH]c1=O [Compound 4f, 2-(4-methyl-3,6-dioxo-2,3-dihydropyridazin-1(6H)-yl)-2-oxoethyl 4-(1H-pyrrol-1-yl)benzoate] | 35 | greater inhibition characteristics than trimethoprim | 0.8 (≈ 2.26 µM) | 258 ± 0.1 (≈ 730 µM) | 3.12 (≈ 8.83 µM) | 23 | 1.6 (≈ 4.53 µM)
